Where “and” joins values, the source holds several entries; their conditions need not be identical. Identical values can stand only once.
Assay: Screening of excipient suitability: zileuton with excipient, stability at 50° C.
Assay type: physicochemical
Protocol: Suitability of components generally used in cream formulation with respect to zieluton was screened, prior to preparing a zieluton cream formulation. […] That is, the stability of excipient at 50° C. was tested.

[1] = Zileuton API alone, 2 weeks, 50° C.
[2] = Zileuton API alone, 4 weeks, 50° C.
[3] = with Carbomer 1:1, 2 weeks, 50° C.
[4] = with Carbomer 1:1, 4 weeks, 50° C.
[5] = with Ceteareth-20 1:1, 2 weeks, 50° C.
[6] = with Ceteareth-20 1:1, 4 weeks, 50° C.
[7] = with Hypromellose (HPMC) 1:1, 2 weeks, 50° C.
[8] = with Hypromellose (HPMC) 1:1, 4 weeks, 50° C.
[9] = with Hypromellose (HPMC) 1:1, Day 0
[10] = with Phospholipon 90H 1:1, 2 weeks, 50° C.
[11] = with Phospholipon 90H 1:1, 4 weeks, 50° C.
[12] = with Phospholipon 90H 1:1, Day 0
[13] = with Stearyl alcohol 1:1, 2 weeks, 50° C.
[14] = with Stearyl alcohol 1:1, 4 weeks, 50° C.
[15] = with Stearyl alcohol 1:1, Day 0
[16] = with Titanium dioxide 1:1, 2 weeks, 50° C.
[17] = with Titanium dioxide 1:1, 4 weeks, 50° C.
[18] = with Titanium dioxide 1:1, Day 0
[19] = with White wax 1:1, 2 weeks, 50° C.
[20] = with White wax 1:1, 4 weeks, 50° C.

## CC(c1cc2ccccc2s1)N(O)C(N)=O (racemic) [Zileuton, (±)-1-(1-(benzo [b]thiophen-2-yl)ethyl)-1-hydroxyurea]
[1]
  Appearance: White
  TRS. %: 3.311% and 3.006%
[2]
  Appearance: White
  TRS. %: 2.711% and 2.493%
Zileuton API alone, Day 0
  TRS. %: 2.378%
[3]
  Appearance: White
  TRS. %: 2.385% and 3.067%
[4]
  Appearance: White
  TRS. %: 2.330% and 2.403%
With Carbomer 1:1, Day 0
  Appearance: White
  TRS. %: 3.326%
[5]
  Appearance: White
  TRS. %: 3.445% and 3.365%
[6]
  Appearance: White
  TRS. %: 3.632% and 3.549%
With Ceteareth-20 1:1, Day 0
  Appearance: White
  TRS. %: 2.394%
[7]
  Appearance: White
  TRS. %: 2.864% and 2.949%
[8]
  Appearance: White
  TRS. %: 2.555% and 2.580%
[9]
  Appearance: White
  TRS. %: 2.610%
[10]
  Appearance: White
  TRS. %: 2.820% and 2.846%
[11]
  Appearance: White
  TRS. %: 2.557% and 2.429%
[12]
  Appearance: White
  TRS. %: 2.400%
[13]
  Appearance: White
  TRS. %: 2.935% and 2.796%
[14]
  Appearance: White
  TRS. %: 2.512% and 2.567%
[15]
  Appearance: White
  TRS. %: 3.311%
[16]
  Appearance: White
  TRS. %: 2.803% and 2.839%
[17]
  Appearance: White
  TRS. %: 2.507% and 2.504%
[18]
  Appearance: White
  TRS. %: 2.344%
[19]
  Appearance: White
  TRS. %: 2.863% and 2.843%
[20]
  Appearance: White
  TRS. %: 2.459% and 2.381%
With White wax 1:1, Day 0
  Appearance: White
  TRS. %: 2.372%

— US9855243B2, “Topical anti-inflammatory pharmaceutical composition with zileuton cream formulation” (Qurient Co., Ltd., priority 2013, dated 2018)
